Assay: Apparent intrinsic clearance in human liver microsomes
Format: ADME, Microsome

Row | Compound | microsomal CLint [µL/min/mg]
1 | CC1CCN(C(=O)C2CCOC2)CC1N(C)c1ncnc2[nH]ccc12 (centres undefined) | 11
2 | CC1CCN(C(=O)CC(F)(F)F)CC1N(C)c1ncnc2[nH]ccc12 (centres undefined) | 16
3 | C[C@@H]1CCN(C(=O)CC#N)C[C@@H]1N(C)c1ncnc2[nH]ccc12 [TOFACITINIB] | 10
4 | CC1CCN(C(=O)CS(C)(=O)=O)CC1N(C)c1ncnc2[nH]ccc12 (centres undefined) | 8

Source: ChEMBL document CHEMBL1795333, “Extraction of tacit knowledge from large ADME data sets via pairwise analysis” (Bioorg Med Chem, 2011)
